Literature values as cited in PMC6316600, “Analgesic Activity of Acid-Sensing Ion Channel 3 (ASIС3) Inhibitors: Sea Anemones Peptides Ugr9-1 and APETx2 versus Low Molecular Weight Compounds” (Marine Drugs, 2018).
Bridge positions count the residues as written; N and C are the ends. Peptide text beside a SMILES is read from it.

Legend:
[1] = test system: CFA-induced thermal hyperalgesia; conditions: cited from earlier work
Experimental: An inhibition of ASIC3 was reported to be an attractive approach to producing analgesia. […] Other nonspecific substances can also influence ASIC3 activity. […] Several ligands with inhibitory properties were found for this receptor, each of which was able to induce analgesia in animal tests. The most well-known inhibitor APETx2 in various studies has been tested on models of acid-induced muscle pain model, CFA-induced inflammatory pain model (at doses of 0.07, 0.22 and 2.2 µM). Ugr9-1 was studied in models of CFA-induced thermal hyperalgesia and acetic acid writhing test (at doses of 0.5, 0.1, and 0.01 mg/kg). […] The nonspecific actions on other cellular targets and the changes of ASIC3 involvement in the inflammatory process induced by the high antagonists’ concentration for 2 h are suspected. We conclude that the inhibition of both components of ASIC3 currents could be beneficial but could be reversed by hormesis in high doses and during a long exposure to ...

acetic acid writhing = conditions: cited from earlier work
Experimental: ASIC3 channels play an important role in the perception and maintenance of pain signals in peripheral neurons. Several ligands with inhibitory properties were found for this receptor, each of which was able to induce analgesia in animal tests. The most well-known inhibitor APETx2 in various studies has been tested on models of acid-induced muscle pain model, CFA-induced inflammatory pain model (at doses of 0.07, 0.22 and 2.2 µM). Ugr9-1 was studied in models of CFA-induced thermal hyperalgesia and acetic acid writhing test (at doses of 0.5, 0.1, and 0.01 mg/kg). […] The nonspecific actions on other cellular targets and the changes of ASIC3 involvement in the inflammatory process induced by the high antagonists’ concentration for 2 h are suspected. We conclude that the inhibition of both components of ASIC3 currents could be beneficial but could be reversed by hormesis in high doses and during a long exposure to ...

[2] = cited from earlier work
Text: Several explanations could be proposed. First, the result of partial ASIC1a inhibition is unpredictable. Second, better bioavailability of sevanol compared with Ugr9-1 can enhance the effect. Peptides from sea anemones have rather shor ...

ASIC1a = conditions: cited from earlier work
Text: An inhibition of ASIC3 was reported to be an attractive approach to producing analgesia. […] Other nonspecific substances can also influence ASIC3 activity.

[3] = intravenous, 30 min before testing

CC[C@H](C)[C@H](N)C(=O)N[C@@H](CO)C(=O)N[C@H](C(=O)N[C@@H](CC(=O)O)C(=O)N1CCC[C@H]1C(=O)N1CCC[C@H]1C(=O)N[C@H]1CSSC[C@@H](C(=O)NCC(=O)N[C@@H](C)C(=O)N[C@H](C(=O)O)C(C)C)NC(=O)CNC(=O)[C@H](Cc2ccc(O)cc2)NC(=O)[C@H](C)NC(=O)[C@H](CC(=O)O)NC(=O)[C@H](Cc2ccc(O)cc2)NC(=O)[C@H](C(C)C)NC(=O)[C@@H]2CSSC[C@H](NC(=O)[C@H](Cc3ccccc3)NC(=O)[C@H](CCCNC(=N)N)NC1=O)C(=O)N[C@@H](Cc1ccc(O)cc1)C(=O)N[C@@H](Cc1c[nH]cn1)C(=O)N[C@@H](CCCNC(=N)N)C(=O)N[C@@H](CC(=O)O)C(=O)NCC(=O)N[C@@H](CO)C(=O)NCC(=O)N[C@@H](CC(N)=O)C(=O)N2)[C@@H](C)CC [Ugr9-1] (H-ISIDPPCRFCYHRDGSGNCVYDAYGCGAV-OH; disulfide 7-26, 10-19; N-terminus and C-terminus assumed)
Dose dependence, CFA thermal hyperalgesia test [1, 3]: clearly dose-dependent | Efficacy in acetic acid writhing test (acetic acid writhing; [3]): ~ 50%

O=C(O)Cc1ccccc1Nc1c(Cl)cccc1Cl [diclofenac, reference compound]
Effect on CFA-induced thermal hyperalgesia ([1]; 100 mg/kg i.p.): significantly reduced CFA-induced thermal hyperalgesia | Circulating half-life [2]: about 2 h | Time of final elimination from the blood flow [2]: 10 h | Effect on acetic acid-induced writhing (acetic acid writhing; 20 mg/kg i.p.): inhibited acetic acid-induced writhing

O=C(O)C[C@H](C(=O)O)[C@@H](OC(=O)C1=Cc2cc(O)c(O)cc2[C@@H](c2ccc(O)c(O)c2)[C@@H]1C(=O)O[C@@H](C(=O)O)[C@H](CC(=O)O)C(=O)O)C(=O)O [sevanol]
Inhibition of ASIC1a (ASIC1a): able to inhibit ASIC1a
